# Experimental data: patent US4871852A, “Quinoline-carboxylic acid derivatives” (Daiichi Seiyaku Co., Ltd., priority 1984, dated 1989)
# Like-named read-outs stand apart in the source and are kept apart here.
# What was measured:
# [1] = tested on: Streptococcus faecalis ATCC 19433; assay: Minimum Inhibitory Concentration (standard method of the Japan Society of Chemotherapy); type: cell-based; settings: Enterococcus faecalis, read-out: Minimum Inhibitory Concentration (MIC)
# Method: (§1) Determined by the standard method of the Japan Society of Chemotherapy: i
# (§2) MullerHinton bouillon, 10^6 /ml of bacteria were seeded and incubated
# (§3) at 37° C. for 18 hours.
# [2] = tested on: Serratia marcessens 13001; assay: as above; type: cell-based; settings: Muller-Hinton bouillon, 10^6/ml bacteria, 37° C., 18 hours
# Method: as §1, §2, §3
# [3] = tested on: Staphylococcus epidermidis 56556; assay: as above; type: cell-based; settings: read-out: Minimum Inhibitory Concentration (MIC)
# Method: as §1, §2, §3
# [4] = tested on: Pseudomonas aeruginosa 2131; assay: as above; type: cell-based; settings: read-out: Minimum Inhibitory Concentration (MIC)
# Method: as §1, §2, §3
# [5] = tested on: Pseudomonas maltophilia IID 1275; assay: as above; type: cell-based; settings: Stenotrophomonas maltophilia, read-out: Minimum Inhibitory Concentration (MIC)
# Method: as §1, §2, §3
# [6] = tested on: Pseudomonas cepacia IID 1340; assay: as above; type: cell-based; settings: Burkholderia cepacia, read-out: Minimum Inhibitory Concentration (MIC)
# Method: as §1, §2, §3
# [7] = tested on: Staphylococcus aureus Smith; assay: as above; type: cell-based; settings: read-out: Minimum Inhibitory Concentration (MIC)
# Method: as §1, §2, §3
# Escherichia coli NIHJ = assay: as above; type: cell-based; settings: Muller-Hinton bouillon, 10^6/ml bacteria, 37° C., 18 hours
# Method: as §1, §2, §3
# Proteus vulgaris 3167 = assay: as above; type: cell-based; settings: read-out: Minimum Inhibitory Concentration (MIC)
# Method: as §1, §2, §3
# [8] = tested on: gram-positive and gram-negative bacteria; assay: antibacterial activity (statement in words); type: cell-based
# [9] = pharmacokinetic properties: blood level, intestinal absorption (statement in words); type: in vivo; settings: in comparison with cyprofloxacin
# [10] = ATCC19433, Streptococcus faecalis ATCC 19433, Muller-Hinton bouillon, 10^6/ml bacteria, 37° C., 18 hours
# [11] = Staphylococcus epidermidis 56556, Muller-Hinton bouillon, 10^6/ml bacteria, 37° C., 18 hours
# [12] = Pseudomonas aeruginosa 2131, Muller-Hinton bouillon, 10^6/ml bacteria, 37° C., 18 hours
# [13] = IID1275, Pseudomonas maltophilia IID 1275, Muller-Hinton bouillon, 10^6/ml bacteria, 37° C., 18 hours
# [14] = IID1340, Pseudomonas cepacia IID 1340, Muller-Hinton bouillon, 10^6/ml bacteria, 37° C., 18 hours
# [15] = Staphylococcus aureus Smith, Muller-Hinton bouillon, 10^6/ml bacteria, 37° C., 18 hours
# [16] = Proteus vulgaris 3167, Muller-Hinton bouillon, 10^6/ml bacteria, 37° C., 18 hours
Compound,"MIC [1, 10] [µg/mL]",MIC [2] [µg/mL],"MIC [3, 11] [µg/mL]","MIC [4, 12] [µg/mL]","MIC [5, 13] [µg/mL]","MIC [6, 14] [µg/mL]","MIC [7, 15] [µg/mL]",MIC (Escherichia coli NIHJ) [µg/mL],MIC (Proteus vulgaris 3167; [16]) [µg/mL],antibacterial activity [8],blood level [9],intestinal absorption [9],"MIC ([1]; ATCC19433, 18 h) [µg/mL]","MIC ([3]; Staphylococcus epidermidis, 56556, 18 h) [µg/mL]","MIC ([4]; Pseudomonas aeruginosa, 2131, 18 h) [µg/mL]","MIC ([5]; IID1275, 18 h) [µg/mL]","MIC ([6]; IID1340, 18 h) [µg/mL]","MIC ([7]; Staphylococcus aureus, 18 h) [µg/mL]","MIC (Proteus vulgaris 3167; Proteus vulgaris, 3167, 18 h) [µg/mL]"
"CN1CCN(c2cc3c(cc2F)c(=O)c(C(=O)O)cn3[C@@H]2C[C@@H]2F)CC1 (relative stereo) [Ia-1, 1-(cis-2-fluorocyclopropyl)-6-fluoro-1,4-dihydro-7-(4-methyl-1-piperazinyl)-4-oxoquinoline-3-carboxylic acid]",0.78,≤ 0.05,0.1,0.2,0.2,0.2,≤ 0.05,≤ 0.05,≤ 0.05,strong antibacterial activity,high blood level,good intestinal absorption,–,–,–,–,–,–,–
"O=C(O)c1cn([C@@H]2C[C@@H]2F)c2cc(N3CCNCC3)c(F)cc2c1=O (relative stereo) [Ia-2, 1-(cis-2-fluorocyclopropyl)-6-fluoro-1,4-dihydro-7-(1-piperazinyl)-4-oxoquinoline-3-carboxylic acid]",1.56,≤ 0.05,0.2,≤ 0.05,0.78,1.56,0.1,≤ 0.05,≤ 0.05,–,–,–,–,–,–,–,–,–,–
"CN1CCN(c2c(F)cc3c(=O)c(C(=O)O)cn([C@@H]4C[C@@H]4F)c3c2F)CC1 (relative stereo) [Ib-1, 1-(2-fluorocyclopropyl)-6,8-difluoro-1,4-dihydro-7-(4-methyl-1-piperazinyl)-4-oxoquinoline-3-carboxylic acid]",0.78,≤ 0.05,0.2,0.1,0.1,0.78,0.1,≤ 0.05,≤ 0.05,–,–,–,–,–,–,–,–,–,–
"O=C(O)c1cn([C@@H]2C[C@@H]2F)c2c(F)c(N3CCNCC3)c(F)cc2c1=O (relative stereo) [Ib-2, 1-(2-fluorocyclopropyl)-6,8-difluoro-1,4-dihydro-7-(1-piperazinyl)-4-oxoquinoline-3-carboxylic acid]",1.56,≤ 0.05,0.2,≤ 0.05,0.78,1.56,0.1,≤ 0.05,≤ 0.05,–,–,–,–,–,–,–,–,–,–
"CN1CCN(c2cc3c(cc2F)c(=O)c(C(=O)O)cn3C2CC2)CC1 [Ba-1, 1cyclopropyl-6-fluoro-1,4-dihydro-7-(4-methyl-1-piperazinyl)-4-oxoquinoline-3-carboxylic acid, reference compound]",0.78,0.1,0.39,0.1,0.2,0.78,0.2,≤ 0.05,≤ 0.05,–,–,–,–,–,–,–,–,–,–
"O=C(O)c1cn(C2CC2)c2cc(N3CCNCC3)c(F)cc2c1=O [Ba-2, 1-cyclopropyl-6-fluoro-1,4-dihydro-7-(1-piperazinyl)-4-oxoquinoline-3-carboxylic acid, reference compound]",–,≤ 0.05,–,–,–,–,–,≤ 0.05,–,–,–,–,0.78,0.2,≤ 0.05,0.78,3.13,0.1,≤ 0.05
"CN1CCN(c2c(F)cc3c(=O)c(C(=O)O)cn(C4CC4)c3c2F)CC1 [Ba-3, 1cyclopropyl-6,8-difluoro-1,4-dihydro-7-(4-methyl-1-piperazinyl)-4-oxoquinoline-3-carboxylic acid, reference compound]",0.78,≤ 0.05,0.2,0.2,≤ 0.05,0.78,0.2,≤ 0.05,≤ 0.05,–,–,–,–,–,–,–,–,–,–
"O=C(O)c1cn(C2CC2)c2c(F)c(N3CCNCC3)c(F)cc2c1=O [Ba-4, 1cyclopropyl-6,8-difluoro-1,4-dihydro-7-(1-piperazinyl)-4-oxoquinoline-3-carboxylic acid, reference compound]",0.78,≤ 0.05,0.2,≤ 0.05,0.39,0.39,0.2,≤ 0.05,≤ 0.05,–,–,–,–,–,–,–,–,–,–
